Laboratory results as given in US10004701B2, “Methods and compositions for treating infection” (UNIVERSITY OF ROCHESTER, priority 2012, dated 2018).
Counter-ions that a name gives are not always drawn. Like-named read-outs stand apart in the source and are kept apart here.

Columns and labels:
Assay in all cases: AK assay 384-well format, Prestwick library screening
E. cloacae = type: cell-based, Enterobacter cloacae; conditions: for fold induction at 50 µM: Enterobacter cloacae, 3 h
E. faecium = type: cell-based, Enterococcus faecium; conditions: for fold induction at 50 µM: Enterococcus faecium, 3 h
E. coli = type: cell-based, Escherichia coli; conditions: for fold induction at 50 µM: Escherichia coli, 3 h
K. pneumoniae = type: cell-based, Klebsiella pneumoniae; conditions: for fold induction at 50 µM: Klebsiella pneumoniae, 3 h
[1] = system: S. aureus strain USA300-0114; type: cell-based, Staphylococcus aureus; conditions: for fold induction at 50 µM: Staphylococcus aureus, USA300, 3 h
P. aeruginosa = type: cell-based, Pseudomonas aeruginosa; conditions: for fold induction at 50 µM: Pseudomonas aeruginosa, 3 h
[2] = system: A. baumannii strain 98-37-09; type: cell-based, Acinetobacter baumannii; conditions: for fold induction at 50 µM: Acinetobacter baumannii, 983709, 3 h
[3] = 50 μM final drug concentration, cutoff for positive-scoring molecules 3-fold increase
[4] = 50 μM final drug concentration, cutoff for positive-scoring molecules 3-fold increase, read-out: AK-based Prestwick Library Screening Results, E. cloacae (fold increase in extracellular AK activity)
[5] = 50 μM final drug concentration, cutoff for positive-scoring molecules 3-fold increase, read-out: AK-based Prestwick Library Screening Results, E. faecium (fold increase in extracellular AK activity)
[6] = 50 μM final drug concentration, cutoff for positive-scoring molecules 3-fold increase, read-out: AK-based Prestwick Library Screening Results, E. coli (fold increase in extracellular AK activity)
[7] = 50 μM final drug concentration, cutoff for positive-scoring molecules 3-fold increase, read-out: AK-based Prestwick Library Screening Results, K. pneumoniae (fold increase in extracellular AK activity)
[8] = 50 μM final drug concentration, cutoff for positive-scoring molecules 3-fold increase, read-out: AK-based Prestwick Library Screening Results, S. aureus (fold increase in extracellular AK activity)
[9] = 50 μM final drug concentration, cutoff for positive-scoring molecules 3-fold increase, read-out: AK-based Prestwick Library Screening Results, P. aeruginosa (fold increase in extracellular AK activity)
[10] = 50 μM final drug concentration, cutoff for positive-scoring molecules 3-fold increase, read-out: AK-based Prestwick Library Screening Results, A. baumannii (fold increase in extracellular AK activity)
[11] = 50 μM final drug concentration, planktonic, […]
[12] = 50 μM final drug concentration, planktonic, cutoff for positive 3-fold increase

## CC[N+](C)(CC)CCC[n+]1c(-c2ccccc2)c2cc(N)ccc2c2ccc(N)cc21.[I-].[I-] [Propidium iodide]
E. cloacae; [3]
  AK-based Prestwick Library Screening Results, E. cloacae (fold increase in extracellular AK activity): 1.6
E. faecium; [3]
  AK-based Prestwick Library Screening Results, E. faecium (fold increase in extracellular AK activity): 0.8
E. coli; [3]
  AK-based Prestwick Library Screening Results, E. coli (fold increase in extracellular AK activity): 1.3
K. pneumoniae; [3]
  AK-based Prestwick Library Screening Results, K. pneumoniae (fold increase in extracellular AK activity): 0.8
[1]; [3]
  AK-based Prestwick Library Screening Results, S. aureus (fold increase in extracellular AK activity): 1.4
P. aeruginosa; [3]
  AK-based Prestwick Library Screening Results, P. aeruginosa (fold increase in extracellular AK activity): 1.0
[2]; [3]
  AK-based Prestwick Library Screening Results, A. baumannii (fold increase in extracellular AK activity): 1.1

## CC(C)c1cccc(C(C)C)c1O [Propofol]
E. cloacae; read-out: AK-based Prestwick Library Screening Results, E. cloacae (fold increase in extracellular AK activity)
  fold induction at 50 µM: 1.7
E. faecium; read-out: AK-based Prestwick Library Screening Results, E. faecium (fold increase in extracellular AK activity)
  fold induction at 50 µM: 1
E. coli; read-out: AK-based Prestwick Library Screening Results, E. coli (fold increase in extracellular AK activity)
  fold induction at 50 µM: 1.3
K. pneumoniae; read-out: AK-based Prestwick Library Screening Results, K. pneumoniae (fold increase in extracellular AK activity)
  fold induction at 50 µM: 1.1
[1]; read-out: AK-based Prestwick Library Screening Results, S. aureus (fold increase in extracellular AK activity)
  fold induction at 50 µM: 1.2
P. aeruginosa; read-out: AK-based Prestwick Library Screening Results, P. aeruginosa (fold increase in extracellular AK activity)
  fold induction at 50 µM: 1
[2]; read-out: AK-based Prestwick Library Screening Results, A. baumannii (fold increase in extracellular AK activity)
  fold induction at 50 µM: 1

## CCCOc1cc(N)ccc1C(=O)OCCN(CC)CC [Propoxycaine hydrochloride]
E. cloacae; planktonic E. cloacae, 50 μM final drug concentration, positive cutoff 3-fold increase, read-out: AK-based Prestwick library screening result, E. cloacae (fold increase in extracellular AK activity)
  fold induction at 50 µM: 0.8
E. faecium; planktonic E. faecium, 50 μM final drug concentration, positive cutoff 3-fold increase, read-out: AK-based Prestwick library screening result, E. faecium (fold increase in extracellular AK activity)
  fold induction at 50 µM: 1
E. coli; planktonic E. coli, 50 μM final drug concentration, positive cutoff 3-fold increase, read-out: AK-based Prestwick library screening result, E. coli (fold increase in extracellular AK activity)
  fold induction at 50 µM: 0.6
K. pneumoniae; planktonic K. pneumoniae, 50 μM final drug concentration, positive cutoff 3-fold increase, read-out: AK-based Prestwick library screening result, K. pneumoniae (fold increase in extracellular AK activity)
  fold induction at 50 µM: 0.6
[1]; planktonic S. aureus, 50 μM final drug concentration, positive cutoff 3-fold increase, read-out: AK-based Prestwick library screening result, S. aureus (fold increase in extracellular AK activity)
  fold induction at 50 µM: 0.7
P. aeruginosa; planktonic P. aeruginosa, 50 μM final drug concentration, positive cutoff 3-fold increase, read-out: AK-based Prestwick library screening result, P. aeruginosa (fold increase in extracellular AK activity)
  fold induction at 50 µM: 0.7
[2]; planktonic A. baumannii, 50 μM final drug concentration, positive cutoff 3-fold increase, read-out: AK-based Prestwick library screening result, A. baumannii (fold increase in extracellular AK activity)
  fold induction at 50 µM: 0.8

## CC(C)NCC(O)COc1cccc2ccccc12 (stereo not shown) [Propranolol hydrochloride]
E. cloacae; [4]
  fold induction at 50 µM: 1.4
E. faecium; [5]
  fold induction at 50 µM: 1.1
E. coli; [6]
  fold induction at 50 µM: 1.2
K. pneumoniae; [7]
  fold induction at 50 µM: 1.1
[1]; [8]
  fold induction at 50 µM: 1.4
P. aeruginosa; [9]
  fold induction at 50 µM: 1.2
[2]; [10]
  fold induction at 50 µM: 1.2

## CCCc1cc(=O)[nH]c(=S)[nH]1 [Propylthiouracil]
E. cloacae; planktonic E. cloacae, 50 μM final drug concentration, cutoff for positive-scoring molecules 3-fold increase, read-out: AK-based Prestwick Library Screening Results, E. cloacae (increase in extracellular AK activity)
  fold induction at 50 µM: 1.1
E. faecium; planktonic E. faecium, 50 μM final drug concentration, cutoff for positive-scoring molecules 3-fold increase, read-out: AK-based Prestwick Library Screening Results, E. faecium (increase in extracellular AK activity)
  fold induction at 50 µM: 1
E. coli; planktonic E. coli, 50 μM final drug concentration, cutoff for positive-scoring molecules 3-fold increase, read-out: AK-based Prestwick Library Screening Results, E. coli (increase in extracellular AK activity)
  fold induction at 50 µM: 0.7
K. pneumoniae; planktonic K. pneumoniae, 50 μM final drug concentration, cutoff for positive-scoring molecules 3-fold increase, read-out: AK-based Prestwick Library Screening Results, K. pneumoniae (increase in extracellular AK activity)
  fold induction at 50 µM: 0.6
[1]; planktonic S. aureus, 50 μM final drug concentration, cutoff for positive-scoring molecules 3-fold increase, read-out: AK-based Prestwick Library Screening Results, S. aureus (increase in extracellular AK activity)
  fold induction at 50 µM: 0.7
P. aeruginosa; planktonic P. aeruginosa, 50 μM final drug concentration, cutoff for positive-scoring molecules 3-fold increase, read-out: AK-based Prestwick Library Screening Results, P. aeruginosa (increase in extracellular AK activity)
  fold induction at 50 µM: 0.7
[2]; planktonic A. baumannii, 50 μM final drug concentration, cutoff for positive-scoring molecules 3-fold increase, read-out: AK-based Prestwick Library Screening Results, A. baumannii (increase in extracellular AK activity)
  fold induction at 50 µM: 0.8

## C[C@@H]1O[C@@H](O[C@@H]2C=C3CC[C@@H]4[C@H](CC[C@]5(C)[C@@H](c6ccc(=O)oc6)CC[C@]45O)[C@@]3(C)CC2)[C@H](O)[C@H](O)[C@H]1O [Proscillaridin A]
E. cloacae; planktonic E. cloacae, 50 μM final drug concentration, […]
  AK-based Prestwick library screening result, E. cloacae (fold increase in extracellular AK activity): 0.9
E. faecium; planktonic E. faecium, 50 μM final drug concentration, […]
  AK-based Prestwick library screening result, E. faecium (fold increase in extracellular AK activity): 0.8
E. coli; planktonic E. coli, 50 μM final drug concentration, […]
  AK-based Prestwick library screening result, E. coli (fold increase in extracellular AK activity): 0.9
K. pneumoniae; planktonic K. pneumoniae, 50 μM final drug concentration, […]
  AK-based Prestwick library screening result, K. pneumoniae (fold increase in extracellular AK activity): 0.7
[1]; planktonic S. aureus, 50 μM final drug concentration, […]
  AK-based Prestwick library screening result, S. aureus (fold increase in extracellular AK activity): 0.6
P. aeruginosa; planktonic P. aeruginosa, 50 μM final drug concentration, […]
  AK-based Prestwick library screening result, P. aeruginosa (fold increase in extracellular AK activity): 0.9
[2]; planktonic A. baumannii, 50 μM final drug concentration, […]
  AK-based Prestwick library screening result, A. baumannii (fold increase in extracellular AK activity): 0.8

## CC[C@@H](C)C(=O)O[C@H]1[C@H](O)[C@H]2[C@@H](CN3C[C@@H](C)CC[C@H]3[C@@]2(C)O)[C@@H]2C[C@]34O[C@]5(O)[C@@H](OC(=O)[C@@](C)(O)CC)CC[C@@]3(C)[C@@H]5[C@@H](OC(C)=O)[C@@H](OC(C)=O)[C@H]4[C@@]21O [Protoveratrine A]
E. cloacae; [11]
  AK-based Prestwick Library Screening Results, E. cloacae (fold increase in extracellular AK activity): 1.3
E. faecium; [11]
  AK-based Prestwick Library Screening Results, E. faecium (fold increase in extracellular AK activity): 1.0
E. coli; [11]
  AK-based Prestwick Library Screening Results, E. coli (fold increase in extracellular AK activity): 1.1
K. pneumoniae; [11]
  AK-based Prestwick Library Screening Results, K. pneumoniae (fold increase in extracellular AK activity): 1.2
[1]; [11]
  AK-based Prestwick Library Screening Results, S. aureus (fold increase in extracellular AK activity): 1.2
P. aeruginosa; [11]
  AK-based Prestwick Library Screening Results, P. aeruginosa (fold increase in extracellular AK activity): 1.1
[2]; [11]
  AK-based Prestwick Library Screening Results, A. baumannii (fold increase in extracellular AK activity): 1.2

## CNCCCC1c2ccccc2C=Cc2ccccc21 [Protriptyline hydrochloride]
E. cloacae; [4]
  fold induction at 50 µM: 1.4
E. faecium; [5]
  fold induction at 50 µM: 1
E. coli; [6]
  fold induction at 50 µM: 1.2
K. pneumoniae; [7]
  fold induction at 50 µM: 1.1
[1]; [8]
  fold induction at 50 µM: 2.8
P. aeruginosa; [9]
  fold induction at 50 µM: 1.2
[2]; [10]
  fold induction at 50 µM: 1.1

## CC(O)Cn1cnc2c1c(=O)n(C)c(=O)n2C (stereo not shown) [Proxyphylline]
E. cloacae; 50 μM final drug concentration, planktonic, cutoff for positive-scoring molecules 3-fold increase, read-out: AK-based Prestwick Library Screening Results, E. cloacae (fold increase in extracellular AK activity)
  fold induction at 50 µM: 0.5
E. faecium; 50 μM final drug concentration, planktonic, cutoff for positive-scoring molecules 3-fold increase, read-out: AK-based Prestwick Library Screening Results, E. faecium (fold increase in extracellular AK activity)
  fold induction at 50 µM: 0.9
E. coli; 50 μM final drug concentration, planktonic, cutoff for positive-scoring molecules 3-fold increase, read-out: AK-based Prestwick Library Screening Results, E. coli (fold increase in extracellular AK activity)
  fold induction at 50 µM: 0.5
K. pneumoniae; 50 μM final drug concentration, planktonic, cutoff for positive-scoring molecules 3-fold increase, read-out: AK-based Prestwick Library Screening Results, K. pneumoniae (fold increase in extracellular AK activity)
  fold induction at 50 µM: 0.5
[1]; 50 μM final drug concentration, planktonic, cutoff for positive-scoring molecules 3-fold increase, read-out: AK-based Prestwick Library Screening Results, S. aureus (fold increase in extracellular AK activity)
  fold induction at 50 µM: 0.5
P. aeruginosa; 50 μM final drug concentration, planktonic, cutoff for positive-scoring molecules 3-fold increase, read-out: AK-based Prestwick Library Screening Results, P. aeruginosa (fold increase in extracellular AK activity)
  fold induction at 50 µM: 0.5
[2]; 50 μM final drug concentration, planktonic, cutoff for positive-scoring molecules 3-fold increase, read-out: AK-based Prestwick Library Screening Results, A. baumannii (fold increase in extracellular AK activity)
  fold induction at 50 µM: 0.6

## CN1[C@@H]2CCC[C@H]1CC(=O)C2.Cl [Pseudopelletierine hydrochloride]
E. cloacae; [12]
  AK-based Prestwick Library Screening Results, E. cloacae (fold increase in extracellular AK activity): 1.5
E. faecium; [12]
  AK-based Prestwick Library Screening Results, E. faecium (fold increase in extracellular AK activity): 0.9
E. coli; [11]
  AK-based Prestwick Library Screening Results, E. coli (fold increase in extracellular AK activity): 1.4
K. pneumoniae; [12]
  AK-based Prestwick Library Screening Results, K. pneumoniae (fold increase in extracellular AK activity): 1.2
[1]; [12]
  AK-based Prestwick Library Screening Results, S. aureus (fold increase in extracellular AK activity): 1.0
P. aeruginosa; [12]
  AK-based Prestwick Library Screening Results, P. aeruginosa (fold increase in extracellular AK activity): 1.1
[2]; [12]
  AK-based Prestwick Library Screening Results, A. baumannii (fold increase in extracellular AK activity): 1.2
